{"source": "patent EP0334956A1", "about": "“HEMOLYSIS INHIBITOR AND MEDICAL RESIN COMPOSITION, MEDICAL IMPLEMENT, AND BLOOD-PRESERVING FLUID CONTAINING THE SAME” (KAO CORPORATION, priority 1986, dated 1988)", "key": {"[1]": {"tested_on": "human concentrated red cells", "experiment": "Hemolysis of stored CRC, reagent added as Tween 80/physiological saline emulsion; plasma hemoglobin by TMB method", "assay_type": "cell-based", "conditions": "for Hemoglobin concentration in plasma: Table 1, emulsion, 4°C, 4 weeks; for hemolysis depressing capacity (in words): summary of Tables 1 through 6 (emulsion and direct addition)", "procedure": "Isopropyl isotridecyl maleate was added to a 2000ug/ml polyoxyethylene monooleate (reagent-grade product of Wako Junyaku K.K. marketed under trademark designation of \"Tween 80\")/physiological saline mixed solution in such an amount to be contained therein in a final concentration of 4mM. A 0.2ml aliquot of the resultant emulsion was added to a human concentrated red cells (hereinafter referred to as \"CRC\") adjusted in advance to a hematocrit value of about 70% so as to be contained therein in a final concentration indicated in Table 1. The resulting liquid was placed in a stoppered polypropylene tube and left standing at rest at 4°C for 4 weeks. At the end of this standing, it was tested for plasma hemoglobin concentration by the TMB method (Clin. Chem., 23, 749-(1977)).\nAn emulsion was prepared by following the procedure of Example 1, except that isopropyl decyl maleate was used in place of isopropyl-isotridecyl maleate. A CRC sample incorporating the emulsion was left standing and thereafter tested for plasma hemoglobin concentration.\nEmulsions were prepared by following the procedure of Excample 1, except that di-2-ethylhexyl phthalate (Control 1) and diisopropyl maleate, a carboxylic ester compound deviating from the scope of the present invention (Control 2) were respectively used in place of isopropyl isotridecyl maleate. CRC samples severally incorporating the emulsions were left standing and, thereafter, tested for plasma hemoglobin concentration.\nGlycerine-l-butyl-3-isostearyl ether was added to a 2000 ug/ml polyoxyethylene monooleate (regent-grade product of Wako Junyaku K.K. marketed under trademark designation of \"Tween 80\")/ physiological saline mixed solution so as to be contained therein in a final concentration of 4 mM. A 0.2ml aliquot of the resultant emulsion was added to CRC adjusted in advance to a hematocrit value of about 70% so as to be contained therein in a final concentration indicated in Table 3. The resultant liquid was placed in a stoppered polypropylene tube and left standing at 4°C for 4 weeks. Thereafter, it was tested for plasma hemoglobin concentration by following the procedure of Example 1.\nAn emulsion was prepared by following the procedure of Example 5, except that glycerine-1,3-dioctyl ether was used in place of glycerine- l-butyl-3-isostearyl ether. A CRC sample incorporating the resultant emulsion was left standing and, thereafter, tested for plasma hemoglobin concentration. Controls 7 and 8\nEmulsions were prepared by following the procedure of Example 5, except that di-2-ethylhexyl phthalate (Control 7) and glycerine monooctyl ether, an ether compound deviating from the scope of the present invention, (Control 8) were respectively used in place of glycerine-l-butyl-3-isostearyl ether. CRC samples incorporating the emulsions were left standing and, thereafter, tested for plasma hemoglobin concentration.\nIsopropyl isolaurate was dispersed in a 2000 ug/ml poloxyethylene monooleate (reagent-grade product of Wako Junyaku K.K. marketed under trademark designation of \"Tween 80\")/physiological saline mixed solution so as to be contained therein in a concentration of 4 mM. A 0.2-ml aliquot of the resultant emulsion was added to CRC adjusted in advance to a hematocrit value of about 70% so as to be contained therein in a final concentration indicated in Table 5. The resultant liquid was placed in a stoppered polypropylene tube and left standing at 4°C for 4 weeks. Thereafter, it was tested for plasma hemoglobin concentration by following the procedure of Example 1.\nAn emulsion was prepared by following the procedure of Example 9, except that 2-ethylhexyl isostearate was used in place of isopropyl isolaurate. A CRC sample incorporating the resultant emulsion was left standing and, thereafter, tested for plasma hemoglobin concentration."}, "CRC": {"tested_on": "CRC", "experiment": "Hemolysis of stored CRC, reagent added directly to CRC; plasma hemoglobin by TMB method", "assay_type": "cell-based, human", "set-up": "unit not given here", "conditions": "Table 2, direct addition, 4°C, 4 weeks", "procedure": "(§1) Isopropyl isotridecyl maleate was added to CRC adjusted in advance to a hematocrit value of about 70% so as to be contained threrein in a final concentration indicated in Table 2 and stirred gently. The resultant liquid was placed in a stoppered polypropylene tube and left standing at rest at 4°C for 4 weeks, while subjecting to gentle stirring per a week. Thereafter, it was tested for plasma hemoglobin concentration by following the procedure of Example 1.\nBy following the procedrue of Example 3, isopropyl decyl maleate was added to CRC in the place of isopropyl isotridecyl maleate. The resultant liquid was left standing and, thereafter, tested for plasma hemoglobin concentration.\nCRC samples were obtained by following the procedure of Example 3, except that di-2-ethylhexyl phthalate (Control 4) and diisopropyl maleate, a carboxylic ester compound deviating from the scope of this invention, (Control 5) were respectively used in place of isopropyl isotridecyl maleate. The resultant liquids were left standing and, thereafter, tested for plasma hemoglobin concentration.\nas §1, with “Glycerine-l-butyl-isostearyl ether” for “Isopropyl isotridecyl maleate”, “therein” for “threrein”, “4” for “2”, “standing” for “standing at rest”\nA CRC sample was prepared by following the procedure of Example 7, except that glycerine-1,3-dioctyl ether was used in place of glycerine-1-butyl 3-isostearyl ether. The resultant liquid was left standing and, thereafter, tested for plasma hemoglobin concentration.\nEmulsions were prepared by following the procedure of Example 7, excepting di-2-ethylhexyl phthalate (Control 10) and glycerine monooctyl ether, an ether compound deviating from the scope of the present invention, (Control 11) were respectively used in the place of glycerine-l-butyl-3-isostearyl ether. CRC samples incorporating the emulsions were left standing and, thereafter, tested for plasma hemoglobin concetnration.\nas §1, with “Isopropyl isolaurate” for “Isopropyl isotridecyl maleate”, “contained therein” for “contained threrein”, “Table 4” for “Table 2”, “was place” for “was placed”, “standing” for “standing at rest”, “stirring par” for “stirring per”\nAn emulsion was prepared by following the procedrue of Example 11, except that 2-ethylhexyl isostearate was used in place of isopropyl isolaurate. A CRC sample incorporating the resultant emulsion was left standing and, thereafter, tested for plasma hemoglobin concentration.\nEmulsions were prepared by following the procedure of Example 11, except that di-2-ethylhexyl phthalate (Control 16) and ethyl-2-ethylhexanoate, a monocarboxylic ester compound deviating from the scope of the present invention, (Control 17) were respectively used in place of isopropyl isolaurate. CRC samples incorporating the resultant emulsions therein were left standing and, thereafter, tested for plasma hemoglobin concentraiton."}, "[2]": {"tested_on": "human platelet rich plasma", "experiment": "Platelet aggregation in platelet rich plasma (Aggrecoder)", "assay_type": "cell-based", "conditions": "40 mM methanol solution added in 1/100, room temperature 2 hours, relative to blank; for activity at 400 µM: Homo sapiens, Platelet, 2 h, read-out: Ratio of platelet aggregation; for Ratio of platelet aggregation: 400 µM", "procedure": "A 40 mM methanol solution of isopropyl isotridecyl maleate (Example 13), a 40 mM methanol solution of glycerine-l-butyl-3-isostearyl ether (Example 14), a 40 mM methanol solution of isopropyl isolaurate (Example 15), a 40 mM methanol solution of di-2-ethylhexyl phthalate (Control 19) and methanol containing no added compound (Control 20) were severally added to a human platelet rich plasma (count of platelets about 300,000/mm ) in a fixed amount of 1/100, left standing at room temperature for 2 hours, and tested for platelet aggregation by the use of an instrument (product of Kyoto Daiichikagaku K.K. marketed under \"Aggrecoder\").\nThe percentage of transmittance of light through the solution of platelet rich plasma containing a given sample to the maximum transmittance of light through the same solution of platelet rich plasma not containing the sample (blank) was reported as the ratio of aggregation of the sample. As aggregation inducers, 5 µM ADP (adenosine diphosphoric acid) and 5 ug/ml collagen were used."}, "[3]": {"tested_on": "concentrated human red cells", "experiment": "Hemolysis of CRC stored with blood preserving liquid (SAG solution/Tween 80 emulsion)", "assay_type": "cell-based", "conditions": "4°C, 5 weeks", "procedure": "An emulsion was produced by dissolving Tween 80 (reagent grade produced by Wako Junyaku K.K.) in a SAG solution (containing 140 mM of NaCl, 1.25 mM of adenine and 50 mM of glucose) so as to be contained therein in a concentration of 600 µg/ml adding 12 mM isopropyl isotridecyl maleate to the resultant solution, and stirring the resultant mixture for uniform dispersion. In a stoppered polypropylene tube, a mixture of 1.0 ml of the emulsion prepared as described above and 2.0 ml of a liquid of concentrated human red cells adjusted in advance to a hematocrit value of about 70% was left standing at 4°C for 5 weeks. The resultant liquid was tested for free hemoglobin concentration in plasma by following the procedure of Example 1.\nAn emulsion was prepared by dissolving Tween 80 (reagent grade product of Wako Junyaku K.K.) in a SAG liquid so as to be contained therein in a concentration of 600 µg/ml, adding 12 mM of glycerine-l-butyl-3-isostearyl ether and stirring the resultant mixture for 'uniform dispersion. In a stoppered polypropylene tube, a mixture of 1.0 ml of the emulsion prepared as described above and 2.0 ml of CRC adjusted in advance to a hematocrit value of about 70% was left stnading at 4°C for 5 weeks. At the end of this standing, the CRC liqud was tested for change of free hemoglobin concentration in plasma by following the procedure of Example 1.\nAn emulsion was prepared by dissolving Tween 80 (reagent grade product of Wako Junyaku K.K.) in a SAG liquid so as to be contained therein in a concentration of 600 ug/ml, adding 12 mM of isopropyl isolaurate to the resultant solution, and stirring the resultant mixture for uniform dispersion. In a stoppered polypropylene tube, a mixture of 1.0 ml of the emulsion prepared as described above and 2.0 ml of CRC adjusted in advance to a hematocrit value of about 70% and then left standing at 4°C for 5 weeks. At the end of the satnding, the liquid was tested for free hemoglobin concentraiton in plasma by following the procedure of Example 1. The results are shown in Talbe 24."}, "[4]": {"conditions": "aggregation inducer 5 µg/ml collagen"}}, "note": "Where a name gives a salt, the structure may show the parent alone. Read-outs that look alike come from different tables or passages of the source."}
{"compound": "CC(C)CCCCCCCCCCOC(=O)/C=C\\C(=O)OC(C)C", "note": "[Isopropyl isotridecyl maleate]", "values": [{"measurement": "Hemoglobin concentration in plasma", "setting": "[1]; final concentration 0.4 mM", "value": 35, "unit": "Mg/ml"}, {"measurement": "Hemoglobin concentration in plasma", "setting": "[1]; final concentration 4.0 mM", "value": 33, "unit": "Mg/ml"}, {"measurement": "Hemoglobin concentration in plasma", "setting": "CRC; final concentration 0.4 mM", "value": 90}, {"measurement": "Hemoglobin concentration in plasma", "setting": "CRC; final concentration 4.0 mM", "value": 95}, {"measurement": "activity at 400 µM", "setting": "[2]; aggregation inducer 5 µM ADP", "value": 94.3, "unit": "%"}, {"measurement": "activity at 400 µM", "setting": "[2]; [4]", "value": 94.5, "unit": "%"}]}
{"compound": "CCCCCCCCCCOC(=O)/C=C\\C(=O)OC(C)C", "note": "[Isopropyl decyl maleate]", "values": [{"measurement": "Hemoglobin concentration in plasma", "setting": "[1]; final concentration 0.4 mM", "value": 41, "unit": "Mg/ml"}, {"measurement": "Hemoglobin concentration in plasma", "setting": "[1]; final concentration 4.0 mM", "value": 43, "unit": "Mg/ml"}, {"measurement": "Hemoglobin concentration in plasma", "setting": "CRC; final concentration 0.4 mM", "value": 95}, {"measurement": "Hemoglobin concentration in plasma", "setting": "CRC; final concentration 4.0 mM", "value": 99}]}
{"compound": "CCCCC(CC)C(=O)OCC", "note": "(stereo not shown) [Ethyl-2-ethylhexanoate, reference compound]", "values": [{"measurement": "hemolysis depressing capacity (in words)", "setting": "[1]", "value": "possessed virtually no ability to prevent hemolysis or conversely caused hemolysis"}]}
{"compound": "CC(C)CCCCCCCCC(=O)OC(C)C", "note": "[Isopropyl isolaurate]", "values": [{"measurement": "Ratio of platelet aggregation", "setting": "[2]; aggregation inducer 5 µM ADP", "value": 99.3, "unit": "%"}, {"measurement": "Ratio of platelet aggregation", "setting": "[2]; [4]", "value": 101.6, "unit": "%"}, {"measurement": "Concentration of Free Hemoglobin in Plasma", "setting": "[3]; Table 24, final concentration of the additive in CRC 0.4 mM", "value": 86, "unit": "mg/dL"}, {"measurement": "Concentration of Free Hemoglobin in Plasma", "setting": "[3]; Table 24, final concentration of the additive in CRC 4.0 mM", "value": 230, "unit": "mg/dL"}]}
{"compound": "Glycerine-1-butyl-3-isostearyl ether", "values": [{"measurement": "Ratio of platelet aggregation", "setting": "[2]; aggregation inducer 5 µM ADP", "value": 101.0, "unit": "%"}, {"measurement": "Ratio of platelet aggregation", "setting": "[2]; [4]", "value": 103.1, "unit": "%"}, {"measurement": "Concentration of Free Hemoglobin in Plasma", "setting": "[3]; Table 23, final concentration of the additive in CRC 0.4 mM", "value": 71, "unit": "mg/dL"}, {"measurement": "Concentration of Free Hemoglobin in Plasma", "setting": "[3]; Table 23, final concentration of the additive in CRC 4.0 mM", "value": 102, "unit": "mg/dL"}]}
{"compound": "CC(C)OC(=O)/C=C\\C(=O)OC(C)C", "note": "[Diisopropyl maleate, reference compound]", "values": [{"measurement": "Hemoglobin concentration in plasma", "setting": "[1]; final concentration 0.4 mM", "value": 124, "unit": "Mg/ml"}, {"measurement": "Hemoglobin concentration in plasma", "setting": "[1]; final concentration 4.0 mM", "value": 138, "unit": "Mg/ml"}, {"measurement": "hemolysis depressing capacity (in words)", "setting": "[1]", "value": "possessed virtually no ability to prevent hemolysis or conversely caused hemolysis"}, {"measurement": "Hemoglobin concentration in plasma", "setting": "CRC; final concentration 0.4 mM", "value": 135}, {"measurement": "Hemoglobin concentration in plasma", "setting": "CRC; final concentration 4.0 mM", "value": 160}]}
{"compound": "CCCCCCCCOCC(O)CO", "note": "(stereo not shown) [Glycerine monooctyl ether, reference compound]", "values": [{"measurement": "hemolysis depressing capacity (in words)", "setting": "[1]", "value": "possessed virtually no ability to prevent hemolysis or conversely caused hemolysis"}]}
